Test results as given in patent US20070048252A1, “Conjugates of the hydrophilic polymer and the molecules from boxwood extraction, and pharmaceutical compositions of the conjugates” (Beijingn Jenkem Technology CO., Ltd., priority 2003, published 2007).
Entries after “also recorded” stand apart in the source; their conditions may differ.

Columns and labels:
Kunming strain mice = assay: Acute toxicity study, single IV or IP injection, 14 days observation; assay type: in vivo
Description: (§1) The conjugate obtained from example 8 was used as the testing reagent in the following study, while native Cyclovirobuxine D was used as positive control. Both samples were dissolved in sodium acetate (pH 5.7) before injection.
Kunming strain mice, 50% male and 50% formale, weighing 19-21 g, were randomly divided into 5 groups in the study. (1) native Cyclovirobuxine D, (2) the conjugate of PEG and Cyclovirobuxine D. The mice were fasted 12 hours before the injections. Each mice was given a single injection, and the volume for both IV and IP injection was based on 0.3 ml/10 g formulation. […] After 14 days, the mice still alive were executed and then analyzed.

[1] = test system: pituitrin-induced myocardial ischemic injury; assay: Effect on pituitrin-induced myocardial ischemic injury (routine leads ECG: T wave, cardioverter); assay type: in vivo, SD rats; settings: for effect on the cardioverter, in words: comparison with the controls groups, P>0.05; for inhibition of the rising of T wave by pituitrin-induced, in words: in 15 sec
Description: as §1
Methods: 50 normal SD rats of each sex, weighting 180-220 g, were randomly divided into five groups: controls, low dose of native Cyclovirobuxine D (0.25 mg/kg); middle dose of native Cyclovirobuxine D (0.5 mg/kg); low dose of the conjugate of Cyclovirobuxine D (0.25 mg/kg); middle dose of the conjugate of Cyclovirobuxine D (0.5 mg/kg). All rats were fasted before experiment for 12 hours, 1 g/kg urethane was administered by abdominal injection for anesthesia of the rats, and were placed in dorsal recumbency. A needle electrode was inserted into extremity subsurface carefully, examination leads ECG, holding 30 min, records the routine leads ECG The drug was given via vein of […] tail for each groups, after 10 min, 1.5 u/kg pituitrin was injected into dorsal veins of tongue, limited in 10 sec, records the routine leads ECG in 15 s, 30 s, 1, 2, 3, 5, 7, 10, 15 min after injected.

[2] = low dose 0.25 mg/kg iv, 1′ after pituitrin
[3] = low dose 0.25 mg/kg iv, 2′ after pituitrin
[4] = low dose 0.25 mg/kg iv, 3′ after pituitrin
[5] = low dose 0.25 mg/kg iv, 5′ after pituitrin
[6] = low dose 0.25 mg/kg iv, 7′ after pituitrin
[7] = low dose 0.25 mg/kg iv, 10′ after pituitrin
[8] = low dose 0.25 mg/kg iv, 15′ after pituitrin
[9] = low dose 0.25 mg/kg iv, 15″ after pituitrin 1.5 u/kg
[10] = low dose 0.25 mg/kg iv, 30″ after pituitrin
[11] = middle dose 0.5 mg/kg iv, 1′ after pituitrin
[12] = middle dose 0.5 mg/kg iv, 2′ after pituitrin
[13] = middle dose 0.5 mg/kg iv, 3′ after pituitrin
[14] = middle dose 0.5 mg/kg iv, 5′ after pituitrin
[15] = middle dose 0.5 mg/kg iv, 7′ after pituitrin
[16] = middle dose 0.5 mg/kg iv, 10′ after pituitrin
[17] = middle dose 0.5 mg/kg iv, 15′ after pituitrin
[18] = middle dose 0.5 mg/kg iv, 15″ after pituitrin 1.5 u/kg
[19] = middle dose 0.5 mg/kg iv, 30″ after pituitrin
[20] = middle dose 0.5 mg/kg iv, time 0

CN[C@@H](C)[C@H]1[C@H](O)C[C@@]2(C)[C@@H]3CC[C@H]4C(C)(C)[C@@H](NC)CC[C@@]45C[C@@]35CC[C@]12C [native Cyclovirobuxine D, Cyclovirobuxine D]
LD50 in IP injection (Kunming strain mice; Kunming mice, single IP injection, 14 days observation): 97.52 mg/kg
LD50 in IV injection (Kunming strain mice; Kunming mice, single IV injection, 14 days observation): 11.77 mg/kg
effect on the cardioverter, in words [1]: no significantly effect
effect on the cardioverter, in words ([1]; listed as Native Cyclovirobuxine D): no significant effect
cardioverter (X ± S) [1, 2]: 228.3 ± 44.41
rising of T wave (X ± S) [1, 2]: 0.22 ± 0.08
cardioverter (X ± S) [1, 3]: 250.3 ± 29.14
rising of T wave (X ± S) [1, 3]: 0.18 ± 0.065
cardioverter (X ± S) [1, 4]: 267.6 ± 44.71
rising of T wave (X ± S) [1, 4]: 0.21 ± 0.072
cardioverter (X ± S) [1, 5]: 266.4 ± 30.09
rising of T wave (X ± S) [1, 5]: 0.22 ± 0.081
cardioverter (X ± S) [1, 6]: 270.6 ± 30.52
rising of T wave (X ± S) [1, 6]: 0.21 ± 0.076
cardioverter (X ± S) [1, 7]: 289.8 ± 43.91
rising of T wave (X ± S) [1, 7]: 0.23 ± 0.075
cardioverter (X ± S) [1, 8]: 315.0 ± 63.39
rising of T wave (X ± S) [1, 8]: 0.24 ± 0.081
cardioverter (X ± S) [1, 9]: 351.6 ± 90.78
rising of T wave (X ± S) [1, 9]: 0.50 ± 0.092
cardioverter (X ± S) [1, 10]: 202.9 ± 42.85
rising of T wave (X ± S) [1, 10]: 0.23 ± 0.061
cardioverter (X ± S) ([1]; low dose 0.25 mg/kg iv, time 0): 392.4 ± 48.11
rising of T wave (X ± S) ([1]; low dose 0.25 mg/kg iv, time 0): 0.20 ± 0.040
cardioverter (X ± S) [1, 11]: 196.2 ± 52.90
rising of T wave (X ± S) [1, 11]: 0.23 ± 0.068
cardioverter (X ± S) [1, 12]: 215.4 ± 45.47
rising of T wave (X ± S) [1, 12]: 0.23 ± 0.051
cardioverter (X ± S) [1, 13]: 236.7 ± 47.92
rising of T wave (X ± S) [1, 13]: 0.23 ± 0.047
cardioverter (X ± S) [1, 14]: 256.6 ± 51.26
rising of T wave (X ± S) [1, 14]: 0.24 ± 0.040
cardioverter (X ± S) [1, 15]: 268.6 ± 53.15
rising of T wave (X ± S) [1, 15]: 0.25 ± 0.048
cardioverter (X ± S) [1, 16]: 260.8 ± 93.87
rising of T wave (X ± S) [1, 16]: 0.27 ± 0.044
cardioverter (X ± S) [1, 17]: 297.6 ± 41.30
rising of T wave (X ± S) [1, 17]: 0.26 ± 0.040
cardioverter (X ± S) [1, 18]: 331.1 ± 41.18
rising of T wave (X ± S) [1, 18]: 0.34 ± 0.119
cardioverter (X ± S) [1, 19]: 234.5 ± 85.06
rising of T wave (X ± S) [1, 19]: 0.19 ± 0.116
cardioverter (X ± S) [1, 20]: 389.6 ± 46.56
rising of T wave (X ± S) [1, 20]: 0.21 ± 0.052
inhibition of the rising of T wave by pituitrin-induced, in words ([1]; middle dose groups, 0.5 mg/kg, vs control group P<0.01): could inhibit

α-methoxy-polyethylene-glycol-ω-glu-glu-gly-Cyclovirobuxine D ester [Example 8]
toxicity compared with native Cyclovirobuxine D, in words (Kunming strain mice; iv and ip administration, from LD50): lower toxicity
effect on the cardioverter, in words ([1]; listed as the conjugate of Cyclovirobuxine D): no significantly effect; also recorded: no significant effect
cardioverter (X ± S) [1, 2]: 150 ± 96.44
rising of T wave (X ± S) [1, 2]: 0.25 ± 0.062
cardioverter (X ± S) [1, 3]: 180 ± 60.00
rising of T wave (X ± S) [1, 3]: 0.22 ± 0.102
cardioverter (X ± S) [1, 4]: 200 ± 56.57
rising of T wave (X ± S) [1, 4]: 0.28 ± 0.071
cardioverter (X ± S) [1, 5]: 240 ± 69.28
rising of T wave (X ± S) [1, 5]: 0.33 ± 0.056
cardioverter (X ± S) [1, 6]: 260 ± 44.72
rising of T wave (X ± S) [1, 6]: 0.35 ± 0.067
cardioverter (X ± S) [1, 7]: 260 ± 44.72
rising of T wave (X ± S) [1, 7]: 0.32 ± 0.052
cardioverter (X ± S) [1, 8]: 300 ± 91.65
rising of T wave (X ± S) [1, 8]: 0.33 ± 0.069
cardioverter (X ± S) [1, 9]: 270 ± 145.94
rising of T wave (X ± S) [1, 9]: 0.24 ± 0.059
cardioverter (X ± S) [1, 10]: 200 ± 128.06
rising of T wave (X ± S) [1, 10]: 0.17 ± 0.123
cardioverter (X ± S) ([1]; low dose 0.25 mg/kg iv, time 0): 420 ± 60.00
rising of T wave (X ± S) ([1]; low dose 0.25 mg/kg iv, time 0): 0.25 ± 0.064
inhibition of the rising of T wave by pituitrin-induced, in words ([1]; low dose groups, 0.25 mg/kg, vs control groups P<0.01): could inhibit
cardioverter (X ± S) [1, 11]: 180 ± 60.00
rising of T wave (X ± S) [1, 11]: 0.28 ± 0.049
cardioverter (X ± S) [1, 12]: 200 ± 56.57
rising of T wave (X ± S) [1, 12]: 0.27 ± 0.029
cardioverter (X ± S) [1, 13]: 240 ± 0.00
rising of T wave (X ± S) [1, 13]: 0.28 ± 0.029
cardioverter (X ± S) [1, 14]: 260 ± 44.72
rising of T wave (X ± S) [1, 14]: 0.31 ± 0.059
cardioverter (X ± S) [1, 15]: 280 ± 56.57
rising of T wave (X ± S) [1, 15]: 0.31 ± 0.059
cardioverter (X ± S) [1, 16]: 280 ± 56.57
rising of T wave (X ± S) [1, 16]: 0.30 ± 0.065
cardioverter (X ± S) [1, 17]: 280 ± 56.57
rising of T wave (X ± S) [1, 17]: 0.33 ± 0.072
cardioverter (X ± S) [1, 18]: 340 ± 44.72
rising of T wave (X ± S) [1, 18]: 0.33 ± 0.123
cardioverter (X ± S) [1, 19]: 260 ± 107.70
rising of T wave (X ± S) [1, 19]: 0.22 ± 0.107
cardioverter (X ± S) [1, 20]: 420 ± 60.00
rising of T wave (X ± S) [1, 20]: 0.23 ± 0.046
